Experiment [1] deals with OcomOBP7. Put plainly: Fluorescence competitive binding assay (1-NPN displacement). On the set-up: species or system Ophraella communa. Conditions: 1-NPN 2 μM; for Ki: Ki = [IC50]/(1 + [1-NPN]/K1-NPN), OcomOBP7 2 μM, pH 7.4, read-out: Ki (dissociation constant); for IC50: recombinant OcomOBP7 2 μM, 50 mM Tris-HCl pH 7.4, ligand 2–20 μM. The procedure: Based on previous research on the volatiles of A. artemisiifolia, 26 standard chemical odors were selected to verify the binding characteristics of OcomOBP7 using a fluorescence binding assay (Table 2).
(§1) Fluorescence competition binding experiments were performed using an F-380 fluorescence spectrophotometer (Gangdong Technology, Tianjin, China), and the quartz cuvette was 1 cm wide. The excitation and emission slits were 10 nm, the sensitivity was 2 s, the emission wavelength range was 360–500 nm, the excitation wavelength was 337 nm, and the scanning speed was 1200 nm/min. The fluorescent probe, 1-NPN, was dissolved in a chromatographic methanol solution at a concentration of 1 mM. The target protein was diluted to 2 μM with 50 mM Tris-HCl (pH 7.4), and 1 mL of protein diluent was added to the cuvette. The 1-NPN fluorescent probe was added to the protein diluent to obtain a final concentration of 2–20 μM and was allowed to stand for 30 s after mixing. The maximum fluorescence value for each addition of 1-NPN was recorded, and three replicates were used. The 1-NPN fluorescent probe was added to the protein diluent at a final concentration of 2 μM, mixed well, and allowed to stand for 30 s. The maximum fluorescence intensity of 1-NPN was recorded. The odorant ligand was then added at a final concentration of 2–20 μM, and the maximum fluorescence value produced by the mixed solution was determined.
The dissociation constants Ki of OcomOBP7 and the fluorescent ligand compounds were calculated using the Scatchard equation. The formula is as follows: Ki = [IC50]/(1 + [1-NPN]/K1-NPN), where [1-NPN] represents the concentration of unbound 1-NPN, and K1-NPN is the binding constant of the OcomOBP7/1-NPN complex.

Experiment [2] deals with OcomOBP7. The experiment can be described thus: Binding of fluorescent probe 1-NPN to OcomOBP7 (binding curve, Scatchard). Further details: species or system Ophraella communa. Conditions: OcomOBP7 2 μM, 1-NPN 2–20 μM, pH 7.4; read-out: binding constant (Kd) of the protein and probe 1-NPN. The procedure: as §1
The dissociation constants Ki of OcomOBP7 and the fluorescent ligand compounds were calculated using the Scatchard equation. […]

The next experiment relates to O. communa. On the set-up: method as in previous experiment results (unpublished data). Conditions: ref previous experiment results (unpublished data); cited from earlier work.
Experiment [3] has as its system O. communa antennae. The experiment can be described thus: Electroantennography (EAG) after RNAi. Type of experiment: in vivo, Ophraella communa. Conditions: odorant 10 μg/μL in n-hexane, 10 μL; for EAG response of O. communa antennae: after injection of dsRNA (dsOBP7), 48 h; for average EAG response of O. communa antennae: dsEGFP control group, 48 h after injection. As to the method: dsRNA templates were synthesized by PCR using primers containing the T7 promoter sequence as templates. dsRNA was synthesized in vitro using a T7 RNAi Transcription Kit (Ambion Inc., Waltham, MA, USA) according to the manufacturer’s instructions. dsRNA was dissolved in DEPC water and its concentration determined using a Nanophotometer P330 (Implen, Germany). The quality of RNA was determined using 1% gel electrophoresis. Female and male adults with an initial emergence of <12 h were injected. A Nanoliter 2000 microinjector (WPI, Sarasota, FL, USA) was used to inject 1 ng of dsRNA into the pronotum of beetles. dsEGFP was used as a control. After injection, the beetles were kept in Petri dishes and fed fresh A. artemisiifolia leaves daily.
Based on the fluorescence binding experimental results, α-pinene, ocimene, and myrcene were used for the electrophysiological experiments. […] Therefore, the odorants in this experiment were dissolved in n-hexane at a final concentration of 10 μg/μL, with n-hexane alone serving as a blank control. Filter paper strips with 10 μL of odorant were placed in a Pasteur Pipette for EAG experiments. The head and end of one antenna of the O. communa adult were cut off with a blade 48 h after the injection of dsRNA. A glass electrode filled with KCl conductivity liquid was inserted into the incision of the head of the O. communa and then connected to the electroantennogram system. The antenna incision was connected to a glass electrode at the other end using a micromanipulator. Each odorant was stimulated for 0.2 s with an interval of more than 30 s. Each treatment consisted of more than 20 biological replicates. Finally, the response curve was recorded using the EAG2000 software.

Experiment [4] deals with O. communa antennae. Further details: method as in a previous experiment. The note with it: ref a previous experiment; cited from earlier work.

The Ki is the equilibrium dissociation constant of an inhibitor or competing ligand from its target. As a reminder, the IC50 is the concentration that gives 50% inhibition. For (S)-(-)-Limonene, at OcomOBP7 [1], the Ki amounted to 2.55 ± 0.4 µM and the IC50 came to 4.02 µM.

Turning to `C=C1CCC2CC1C2(C)C` (stereo not drawn) [β-Pinene], at OcomOBP7 [1], the Ki stood at 10.9 ± 0.59 µM and the IC50 is 17.2 µM.

Broadly, the Kd is a measure of binding affinity in units of concentration. `c1ccc(Nc2cccc3ccccc23)cc1` [1-NPN]: the dissociation constant Kd at OcomOBP7 [2] is 1.47 ± 0.2 µM.

Turning to `C=CC(=C)CCC=C(C)C` [Myrcene], the “attraction of the beetles” value in the experiment with O. communa is on record as “significantly attract”. Besides, on OcomOBP7 [1], the Ki turned out to be 3.97 ± 0.85 µM and the IC50 amounted to 6.26 µM. Further, in the experiment with O. communa antennae [3], the “EAG response of O. communa antennae” value came to 0.09 ± 0.01 and the “average EAG response of O. communa antennae” value (“average EAG response” below) is 0.10 ± 0.01.

On to `C=C1CCC2(C(C)C)CC12` (stereo not drawn) [Sabinene], for which, at OcomOBP7 [1], the Ki was 4.75 ± 0.14 µM and the IC50 was 7.49 µM.

Take `CC1=CCC(C(C)C)=CC1` [Y-Terpinene]: on OcomOBP7 [1], the inhibitory constant (Ki) was 4.7 ± 0.32 µM and the IC50 turned out to be 7.42 µM.

As for `C=CC(=C)CC/C=C(\C)CCC=C(C)C` [(E)-β-farnesene], on OcomOBP7 [1], the Ki is 0.48 ± 0.04 µM and the IC50 came to 0.76 µM. Further, in the experiment with O. communa antennae [4], the “activation of antennal response via the EAG method” value is “cannot activate the antennal response”.

For `CC1=CC[C@H](C(C)C)C=C1` [α-phellandrene], on OcomOBP7 [1], the Ki came out at 2.91 ± 0.42 µM and the IC50 stood at 4.59 µM.

Consider `CC1=CCC2CC1C2(C)C` (stereo not drawn) [α-Pinene], for which the “attraction of the beetles” value in the experiment with O. communa is listed as “significantly attract”. In addition, on OcomOBP7 [1], the Ki came out at 6.55 ± 0.05 µM and the IC50 was determined as 10.3 µM. Also, in the experiment on O. communa antennae [3], the “EAG response of O. communa antennae” value is listed as 0.28 ± 0.02 and the “average EAG response” value is 0.36 ± 0.03.

As to `C=C(C)C1CC=C(C)CC1` (racemic) [DL-Limonene], on OcomOBP7 [1], the Ki was determined as 2.84 ± 0.2 µM and the IC50 is 4.48 µM.

For `CC(=O)OC1CC2CCC1(C)C2(C)C` (stereo not drawn) [Bornyl acetate], on OcomOBP7 [1], the Ki amounted to 20.37 ± 0.07 µM and the IC50 is 32.2 µM.

Consider `C=C1C2CCC(C2)C1(C)C` (stereo not drawn) [Camphene], for which, at OcomOBP7 [1], the Ki was determined as 9.85 ± 0.66 µM and the IC50 was found to be 15.5 µM.

As to `C=C(C)[C@H]1CC=C(C)CC1` [(R)-(+)-Dipentene], at OcomOBP7 [1], the Ki was determined as 2.22 ± 0.11 µM and the IC50 worked out at 3.5 µM.

On to `C=CC(C)=CCC=C(C)C` [Ocimene], for which the “attraction of the beetles” value in the experiment on O. communa is given as “significantly attract”. For the same compound, on OcomOBP7 [1], the Ki was determined as 1.23 ± 0.11 µM and the IC50 is 1.94 µM. Further, in the experiment on O. communa antennae [3], the “EAG response of O. communa antennae” value stood at 0.14 ± 0.01 and the “average EAG response” value is 0.19 ± 0.01.

As to `CCCCCCCC` [n-Octane], at OcomOBP7 [1], the Ki is 0.67 ± 0.12 µM and the IC50 amounted to 1.05 µM.

Source of the values: PMC9967674, “Characterization and Functional Analysis of OcomOBP7 in Ophraella communa Lesage” (Insects, 2023).
